The results in this text go back to US11084829B2, “Ubiquitin-specific-processing protease 7 (USP7) modulators and uses thereof” (RAPT THERAPEUTICS, INC., priority 2018, dated 2021).

Each structure is given as a SMILES string. Some results are limits rather than exact numbers.

The experiment deals with USP7 (Homo sapiens, UniProt Q93009). The experiment in a line: USP7 inhibitory potency (IC50). The experiment is classed as biochemical. How it is done: Activity for compounds described herein is provided in Table 2, wherein potency levels are provided as follows: (Potency: USP7 IC50: A<0.01 μM; B=0.01-0.1 μM; C=>0.1 μM.
Chain of USP7 (Q93009 whole entry): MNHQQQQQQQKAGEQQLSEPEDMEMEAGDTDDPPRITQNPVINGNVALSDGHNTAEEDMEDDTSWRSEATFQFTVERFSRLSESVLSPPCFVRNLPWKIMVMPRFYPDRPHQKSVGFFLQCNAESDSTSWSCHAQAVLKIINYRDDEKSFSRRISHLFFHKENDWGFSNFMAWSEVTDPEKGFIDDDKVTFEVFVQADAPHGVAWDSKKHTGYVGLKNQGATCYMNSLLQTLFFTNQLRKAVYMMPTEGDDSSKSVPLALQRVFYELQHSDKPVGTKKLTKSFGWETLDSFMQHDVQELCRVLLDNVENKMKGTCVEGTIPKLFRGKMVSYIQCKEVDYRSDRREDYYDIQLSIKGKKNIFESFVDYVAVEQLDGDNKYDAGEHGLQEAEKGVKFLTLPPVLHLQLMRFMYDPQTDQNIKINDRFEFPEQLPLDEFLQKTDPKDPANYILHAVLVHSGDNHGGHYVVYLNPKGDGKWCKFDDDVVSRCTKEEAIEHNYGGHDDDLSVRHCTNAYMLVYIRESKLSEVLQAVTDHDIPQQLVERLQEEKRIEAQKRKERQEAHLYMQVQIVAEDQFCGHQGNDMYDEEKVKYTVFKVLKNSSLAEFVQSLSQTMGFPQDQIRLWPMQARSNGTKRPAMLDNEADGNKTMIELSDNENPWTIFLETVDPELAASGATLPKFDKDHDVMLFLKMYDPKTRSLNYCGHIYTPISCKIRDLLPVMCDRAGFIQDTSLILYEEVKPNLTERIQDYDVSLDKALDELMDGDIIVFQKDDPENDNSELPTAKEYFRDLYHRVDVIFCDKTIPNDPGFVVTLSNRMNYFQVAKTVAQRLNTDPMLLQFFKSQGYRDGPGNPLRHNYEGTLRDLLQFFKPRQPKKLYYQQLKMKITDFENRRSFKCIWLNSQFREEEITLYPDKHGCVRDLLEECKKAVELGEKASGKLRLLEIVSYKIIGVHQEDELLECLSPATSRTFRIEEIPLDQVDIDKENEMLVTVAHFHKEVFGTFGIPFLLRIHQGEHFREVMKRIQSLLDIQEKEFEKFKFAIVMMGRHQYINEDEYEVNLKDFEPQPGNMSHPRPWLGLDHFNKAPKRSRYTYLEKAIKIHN

As for `Cc1cc(Cl)cc(-c2ncnc3cc(CN4CCOCC4=O)sc23)c1CC1CNCCO1` (stereo not drawn) [Example 172, 4-((4-(5-chloro-3-methyl-2-(morpholin-2-ylmethyl)phenyl)thieno[3,2-d]pyrimidin-6-yl)methyl)morpholin-3-one], the IC50 (in general, the point on the concentration scale where inhibition reaches its midpoint) is greater than 0.1 µM. Under `Cc1cc(Cl)cc(-c2ncnc3ccsc23)c1CC1CNCCO1` (stereo not drawn) [Example 173, 2-(4-chloro-2-methyl-6-(thieno[3,2-d]pyrimidin-4-yl)benzyl)morpholine] stands greater than 0.1 µM; under `Cc1cc(Cl)cc(-c2ncnc3cc(CN4CCCC4=O)sc23)c1CC1CNCCO1` (stereo not drawn) [Example 174, 1-((4-(5-chloro-3-methyl-2-(morpholin-2-ylmethyl)phenyl)thieno[3,2-d]pyrimidin-6-yl)methyl)pyrrolidin-2-one], greater than 0.1 µM.

Consider `Cc1cc(Cl)cc(-c2ncnc3cc(CN4CCCCC4=O)sc23)c1CC1CNCCO1` (stereo not drawn) [Example 175, 1-((4-(5-chloro-3-methyl-2-(morpholin-2-ylmethyl)phenyl)thieno[3,2-d]pyrimidin-6-yl)methyl)piperidin-2-one], for which the IC50 was greater than 0.1 µM. Next, `Cc1cc(Cl)cc(-c2ncnc3cc(CN4C(=O)CN(CC(F)(F)F)C4=O)sc23)c1CC1CNCCO1` (stereo not drawn) [Example 176, 3-((4-(5-chloro-3-methyl-2-(morpholin-2-ylmethyl)phenyl)thieno[3,2-d]pyrimidin-6-yl)methyl)-1-(2,2,2-trifluoroethyl)imidazolidine-2,4-dione]: less than 0.01 µM. Under `Cc1cc(Cl)cc(-c2ncnc3cc(CN4C(=O)CN(C)C4=O)sc23)c1CC1CNCCO1` (stereo not drawn) [Example 177, 3-((4-(5-chloro-3-methyl-2-(morpholin-2-ylmethyl)phenyl)thieno[3,2-d]pyrimidin-6-yl)methyl)-1-methylimidazolidine-2,4-dione] stands less than 0.01 µM; under `Cc1cc(Cl)cc(-c2ncnc3cc(CN4C(=O)COC4=O)sc23)c1CC1CNCCO1` (stereo not drawn) [Example 178, 3-((4-(5-chloro-3-methyl-2-(morpholin-2-ylmethyl)phenyl)thieno[3,2-d]pyrimidin-6-yl)methyl)oxazolidine-2,4-dione], less than 0.01 µM. `Cc1cc(Cl)cc(-c2ncnc3cc(CN4C(=O)c5ccccc5C4=O)sc23)c1CC1CNCCO1` (stereo not drawn) [Example 179, 2-((4-(5-chloro-3-methyl-2-(morpholin-2-ylmethyl)phenyl)thieno[3,2-d]pyrimidin-6-yl)methyl)isoindoline-1,3-dione] returned an IC50 of less than 0.01 µM.

Regarding `Cc1cc(Cl)cc(-c2ncnc3cc(CN4C(=O)C5CCC5C4=O)sc23)c1CC1CNCC(C)(C)O1` (stereo not drawn) [Example 180, 3-((4-(5-chloro-2-((6,6-dimethylmorpholin-2-yl)methyl)-3-methylphenyl)thieno[3,2-d]pyrimidin-6-yl)methyl)-3-azabicyclo[3.2.0]heptane-2,4-dione], the IC50 was less than 0.01 µM. In turn, `Cc1cc(Cl)cc(-c2ncnc3cc(CN4C(=O)C5CC5C4=O)sc23)c1C[C@H]1CNCCO1` (stereo partly drawn) [Example 181, 3-((4-(5-chloro-3-methyl-2-(((S)-morpholin-2-yl)methyl)phenyl)thieno[3,2-d]pyrimidin-6-yl)methyl)-3-azabicyclo[3.1.0]hexane-2,4-dione] showed an IC50 of 0.01 to 0.1 µM. Next, `Cc1cc(Cl)cc(-c2ncnc3cc(CN4C(=O)C5CC5C4=O)sc23)c1C[C@@H]1CNCCO1` (stereo partly drawn) [Example 182, 3-((4-(5-chloro-3-methyl-2-(((R)-morpholin-2-yl)methyl)phenyl)thieno[3,2-d]pyrimidin-6-yl)methyl)-3-azabicyclo[3.1.0]hexane-2,4-dione]: less than 0.01 µM; `Cc1cc(Cl)cc(-c2ncnc3cc(CN4C(=O)CN(C)C4=O)sc23)c1CC1CNCC(C)(C)O1` (stereo not drawn) [Example 183, 3-((4-(5-chloro-2-((6,6-dimethylmorpholin-2-yl)methyl)-3-methylphenyl)thieno[3,2-d]pyrimidin-6-yl)methyl)-1-methylimidazolidine-2,4-dione]: less than 0.01 µM. Under `Cc1cc(Cl)cc(-c2ncnc3cc(CN4C(=O)C5CCCCN5C4=O)sc23)c1CC1CNCCO1` (stereo not drawn) [Example 184, 2-((4-(5-chloro-3-methyl-2-(morpholin-2-ylmethyl)phenyl)thieno[3,2-d]pyrimidin-6-yl)methyl)tetrahydroimidazo[1,5-a]pyridine-1,3(2H,5H)-dione] stands less than 0.01 µM; under `Cc1cc(Cl)cc(-c2ncnc3cc(CN4C(=O)C5CC5C4=O)sc23)c1CC1CNCCOC1` (stereo not drawn) [Example 185, 3-((4-(2-((1,4-oxazepan-6-yl)methyl)-5-chloro-3-methylphenyl)thieno[3,2-d]pyrimidin-6-yl)methyl)-3-azabicyclo[3.1.0]hexane-2,4-dione], 0.01 to 0.1 µM. Under `Cc1cc(Cl)cc(-c2ncnc3cc(CN4C(=O)C5CC5C4=O)sc23)c1CC1CNCCS1` (stereo not drawn) [Example 186, 3-((4-(5-chloro-3-methyl-2-(thiomorpholin-2-ylmethyl)phenyl)thieno[3,2-d]pyrimidin-6-yl)methyl)-3-azabicyclo[3.1.0]hexane-2,4-dione] stands less than 0.01 µM. `Cc1cc(Cl)cc(-c2ncnc3cc(CN4C(=O)C5CCCN5C4=O)sc23)c1CC1CNCCO1` (stereo not drawn) [Example 187, 2-((4-(5-chloro-3-methyl-2-(morpholin-2-ylmethyl)phenyl)thieno[3,2-d]pyrimidin-6-yl)methyl)tetrahydro-1H-pyrrolo[1,2-c]imidazole-1,3(2H)-dione] gave an IC50 of less than 0.01 µM. Next, `CCN1CC(=O)N(Cc2cc3ncnc(-c4cc(Cl)cc(C)c4CC4CNCCO4)c3s2)C1=O` (stereo not drawn) [Example 188, 3-((4-(5-chloro-3-methyl-2-(morpholin-2-ylmethyl)phenyl)thieno[3,2-d]pyrimidin-6-yl)methyl)-1-ethylimidazolidine-2,4-dione]: less than 0.01 µM; `Cc1cc(Cl)cc(-c2ncnc3cc(CN4C(=O)C5CC5C4=O)sc23)c1CC1CNCCCO1` (stereo not drawn) [Example 189, 3-((4-(2-((1,4-oxazepan-2-yl)methyl)-5-chloro-3-methylphenyl)thieno[3,2-d]pyrimidin-6-yl)methyl)-3-azabicyclo[3.1.0]hexane-2,4-dione]: less than 0.01 µM; `Cc1cc(Cl)cc(-c2ncnc3cc(CN4C(=O)CCC4=O)sc23)c1CC1CNCC(C)(C)O1` (stereo not drawn) [Example 190, 1-((4-(5-chloro-2-((6,6-dimethylmorpholin-2-yl)methyl)-3-methylphenyl)thieno[3,2-d]pyrimidin-6-yl)methyl)pyrrolidine-2,5-dione]: less than 0.01 µM. With `Cc1cc(Cl)cc(-c2ncnc3cc(CN4C(=O)C5CCCN5C4=O)sc23)c1CC1CNCC(C)(C)O1` (stereo not drawn) [Example 191, 2-((4-(5-chloro-2-((6,6-dimethylmorpholin-2-yl)methyl)-3-methylphenyl)thieno[3,2-d]pyrimidin-6-yl)methyl)tetrahydro-1H-pyrrolo[1,2-c]imidazole-1,3(2H)-dione], the IC50 was less than 0.01 µM. In turn, `Cc1cc(Cl)cc(-c2ncnc3cc(Cn4c(=O)ccn(C)c4=O)sc23)c1CC1CNCC(C)(C)O1` (stereo not drawn) [Example 192, 3-((4-(5-chloro-2-((6,6-dimethylmorpholin-2-yl)methyl)-3-methylphenyl)thieno[3,2-d]pyrimidin-6-yl)methyl)-1-methylpyrimidine-2,4(1H,3H)-dione] came in with an IC50 of less than 0.01 µM.
